Laboratory results taken from patent US10053447B2, “Fluorescent compounds” (Pierce Biotechnology, Inc, priority 2010, dated 2018).

Test: Storage stability at 50° C. under argon
Assay type: physicochemical
Settings: unit size 1 mg; 50° C. for seven days; purity based on ester activity
Experimental: (§1) The inventive compounds were evaluated for stability. All compounds were packed under argon in plastic vials. The vials sere sealed with a drying pad in an aluminium coated pouch, and then stored at 50° C. for seven days. The results of the stability study for selected compounds are shown below:
Purity was determined based on ester activity.
as §1, with “stability compared to commercial dyes.” for “stability.”, “argon as 1 mg portions” for “argon”, “14” for “seven”
The inventive compound 755 Compound 1 (isomer 1)-NHS was evaluated for stability. The compound was packed under argon in plastic vials. The vials sere sealed with a drying pad in an aluminium coated pouch, and then stored at 50° C. for 14 days. Purity was determined by HPLC before and after storage.

Row | Compound | Purity at day 1 [%] | Purity at day 7 [%]
1 | COCCN1/C(=C/C=C/C2=[N+](CCCCCC(=O)Oc3c(F)c(F)cc(F)c3F)c3ccc(S(=O)(=O)[O-])cc3C2(C)CCCS(=O)(=O)O)C(C)(CCCS(=O)(=O)O)c2cc(S(=O)(=O)O)ccc21 (single isomer, unassigned) [550 Compound 1 (isomer 1)-TFP] | 97 | 96
2 | COCCN1/C(=C/C=C/C2=[N+](CCCCCC(=O)NCCN3C(=O)C=CC3=O)c3ccc(S(=O)(=O)[O-])cc3C2(C)CCCS(=O)(=O)O)C(C)(CCCS(=O)(=O)O)c2cc(S(=O)(=O)O)ccc21 (single isomer, unassigned) [550 Compound 1(isomer 1)-maleimide] | 99 | 97
3 | COCCN1/C(=C/C=C/C2=[N+](CCCCCC(=O)NCCN3C(=O)C=CC3=O)c3ccc(S(=O)(=O)[O-])cc3C2(C)CCCS(=O)(=O)O)C(C)(CCCS(=O)(=O)O)c2cc(S(=O)(=O)O)ccc21 (single isomer, unassigned) [550 Compound 1(isomer 2)-maleimide] | 98 | 97
